From patent US20230322767A1, “ARYL SUBSTITUTED PYRROLO-PYRIDINONES AND THERAPEUTIC USES THEREOF” (Bayer Aktiengesellschaft, priority 2020, published 2023)

Experiments:
[1] = biological target: CSNK1A1 (Homo sapiens (Human), UniProt P48729); assay: CSNK1A1 Assay 2 (ADP-Glo, 1 μM ATP); assay type: biochemical; conditions: median, read-out: CSNK1A1 Assay 2 IC50 [mol/l] (median)
Description: CSNK1A1-inhibitory activity of compounds of the present invention in presence of 1 μM adenosine-tri-phosphate (ATP) was quantified employing the CSNK1A1 assay as described in the following paragraphs. In essence, the enzyme activity is measured by quantification of the adenosine-di-phosphate (ADP), which is generated as a co-product of the enzyme reaction, via the “ADP-Glo™ Kinase Assay” kit from the company Promega. This detection system works as follows: In a first step the ATP not consumed in the kinase reaction is quantitatively converted to cAMP employing an adenylate cyclase (“ADP-Glo-reagent”), then the adenylate cyclase is stopped and the ADP generated in the kinase reaction converted to ATP which generates in a luciferase-based reaction a glow-luminescence signal (“Kinase Detection Reagent”).
As substrate for the kinase reaction the biotinylated peptide biotin-Ahx-KRRRAL-pS-VASLPGL (C-terminus in amide form) was used which can be purchased e.g. from the company Biosyntan (Berlin-Buch, Germany).
For the assay 50 nl of a 100 fold concentrated solution of the test compound in DMSO was pipetted into a white 1536-well microtiter plate (Greiner Bio-One, Frickenhausen, Germany), 2 μL of a solution of CSNK1A1 in aqueous assay buffer [50 mM HEPES pH 7.5, 10% (v/v) glycerol, 10 mM MgCl2, 50 mM NaCl, 1 mM dithiothreitol, 0.01% (w/v) bovine serum albumin, 0.01% (v/v) Triton X-100] were added and the mixture was incubated for 15 min at 22° C. to allow pre-binding of the test compounds to the enzyme before the start of the kinase reaction. […] The concentration of CSNK1A1 was adjusted depending of the activity of the enzyme lot and was chosen appropriate to have the assay in the linear range, a typical concentrations are about 0.0375 ng/μL. The reaction was stopped by the addition of 2.5 μL of “ADP-Glo-reagent” (1:1.5 fold diluted with water) and the resulting mixture was incubated at 22° C. for 1 h to convert the ATP not consumed in the kinase reaction completely […]. Subsequently 2.5 μL of the “kinase detection reagent” (1.2 fold more concentrated than recommended by the producer) were added, the resulting mixture was incubated at 22° C. for 1 h and then the luminescence measured with a suitable measurement instrument (e.g. Viewlux™ from Perkin-Elmer). The amount of emitted light was taken as a measure for the amount of ADP generated and thereby for the activity of the CSNK1A1.

[2] = biological target: CSNK1D (Homo sapiens (Human), UniProt P48730); assay: CSNK1D Assay (ADP-Glo, 1 μM ATP); assay type: biochemical; conditions: median, read-out: CSNK1D IC50 [mol/l] (median)
Description: CSNK1D-inhibitory activity of compounds of the present invention in presence of 1 μM adenosine-tri-phosphate (ATP) was quantified employing the CSNK1 D assay as described in the following paragraphs. In essence, the enzyme activity is measured by quantification of the adenosine-di-phosphate (ADP), which is generated as a co-product of the enzyme reaction, via the “ADP-Glo™ Kinase Assay” kit from the company Promega. This detection system works as follows: In a first step the ATP not consumed in the kinase reaction is quantitatively converted to cAMP employing an adenylate cyclase (“ADP-Glo-reagent”), then the adenylate cyclase is stopped and the ADP generated in the kinase reaction converted to ATP which generates in a luciferase-based reaction a glow-luminescence signal (“Kinase Detection Reagent”).
As substrate for the kinase reaction the biotinylated peptide Btn-Ahx-[…] (C-terminus in amide form) was used which can be purchased e.g. from the company Biosyntan (Berlin-Buch, Germany).
For the assay 50 nl of a 100 fold concentrated solution of the test compound in DMSO was pipetted into a white 1536-well microtiter plate (Greiner Bio-One, Frickenhausen, Germany), 2 μL of a solution of CSNK1D in aqueous assay buffer [50 mM HEPES pH 7.5, 10% (v/v) glycerol, 10 mM MgCl2, 50 mM NaCl, 1 mM dithiothreitol, 0.01% (w/v) bovine serum albumin, 0.01% (v/v) Triton X-100] were added and the mixture was incubated for 15 min at 22° C. to allow pre-binding of the test compounds to the enzyme before the start of the kinase reaction. […] The concentration of CSNK1D was adjusted depending of the activity of the enzyme lot and was chosen appropriate to have the assay in the linear range, a typical concentration is about 0.5 ng/μL. The reaction was stopped by the addition of 2.5 μL of “ADP-Glo-reagent” (1:1.5 fold diluted with water) and the resulting mixture was incubated at 22° C. for 1 h to convert the ATP not consumed in the kinase reaction completely […]. Subsequently 2.5 μL of the “kinase detection reagent” (1.2 fold more concentrated than recommended by the producer) were added, the resulting mixture was incubated at 22° C. for 1 h and then the luminescence measured with a suitable measurement instrument (e.g. Viewlux™ from Perkin-Elmer). The amount of emitted light was taken as a measure for the amount of ADP generated and thereby for the activity of the CSNK1D.

CSNK1D, sequence (P48730 whole entry): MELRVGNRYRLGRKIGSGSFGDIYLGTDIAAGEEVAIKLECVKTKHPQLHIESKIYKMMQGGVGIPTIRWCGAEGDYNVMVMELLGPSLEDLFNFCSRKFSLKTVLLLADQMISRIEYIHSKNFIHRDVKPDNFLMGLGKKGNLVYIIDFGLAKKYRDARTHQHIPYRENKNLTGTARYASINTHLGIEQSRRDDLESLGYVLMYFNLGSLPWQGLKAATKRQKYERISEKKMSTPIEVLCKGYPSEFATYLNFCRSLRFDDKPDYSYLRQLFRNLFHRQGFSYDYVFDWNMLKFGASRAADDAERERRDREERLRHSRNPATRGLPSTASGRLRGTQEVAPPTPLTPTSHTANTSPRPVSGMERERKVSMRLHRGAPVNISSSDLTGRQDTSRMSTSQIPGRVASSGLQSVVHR
CSNK1A1, sequence (P48729 whole entry): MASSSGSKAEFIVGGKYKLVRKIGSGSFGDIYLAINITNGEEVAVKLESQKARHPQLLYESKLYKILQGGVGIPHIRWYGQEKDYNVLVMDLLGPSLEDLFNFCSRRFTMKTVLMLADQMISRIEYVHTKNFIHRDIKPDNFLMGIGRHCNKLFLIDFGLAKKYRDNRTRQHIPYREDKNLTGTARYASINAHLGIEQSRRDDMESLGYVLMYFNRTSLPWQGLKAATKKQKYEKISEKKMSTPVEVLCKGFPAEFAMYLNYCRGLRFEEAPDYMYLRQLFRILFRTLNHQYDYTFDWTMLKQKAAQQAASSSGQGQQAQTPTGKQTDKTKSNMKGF

Cn1cc(CC2CC2)c2[nH]c(-c3ccnc(NC(=O)C(CC(F)F)c4ccc(F)cc4)c3)c(-c3ccccc3)c2c1=O (racemic) [Example 60, N-{4-[7-(cyclopropylmethyl)-5-methyl-4-oxo-3-phenyl-4,5-dihydro-1H-pyrrolo[3,2-c]pyridin-2-yl]pyridin-2-yl}-4,4-difluoro-2-(4-fluorophenyl)butanamide]
IC50 [1]: 15 nM | IC50 [2]: 9.5 nM

CN1CC(CC2CC2)c2[nH]c(-c3ccnc(NC(=O)Cc4ccc(F)cc4)c3)c(-c3ccc(F)cc3)c2C1=O (racemic) [Example 61, N-{4-[7-(cyclopropylmethyl)-3-(4-fluorophenyl)-5-methyl-4-oxo-4,5,6,7-tetrahydro-1H-pyrrolo[3,2-c]pyridin-2-yl]pyridin-2-yl}-2-(4-fluorophenyl)acetamide]
IC50 [1]: 2 nM | IC50 [2]: 1.8 nM

CC(C(=O)Nc1cc(-c2[nH]c3c(CC4CC4)cn(C)c(=O)c3c2-c2ccc(F)cc2)ccn1)c1ccc(F)cc1 (racemic) [Example 63, N-{4-[7-(cyclopropylmethyl)-3-(4-fluorophenyl)-5-methyl-4-oxo-4,5-dihydro-1H-pyrrolo[3,2-c]pyridin-2-yl]pyridin-2-yl}-2-(4-fluorophenyl)propanamide]
IC50 [1]: 12 nM | IC50 [2]: 8 nM

CN1CCc2[nH]c(-c3ccnc(NC(=O)C(CC(F)F)c4ccc(F)cc4)c3)c(-c3ccccc3)c2C1=O (single isomer, unassigned) [Example 3, 4,4-difluoro-2-(4-fluorophenyl)-N-[4-(5-methyl-4-oxo-3-phenyl-4,5,6,7-tetrahydro-1H-pyrrolo[3,2-c]pyridin-2-yl)pyridin-2-yl]butanamide]
IC50 [1]: 4.7 nM | IC50 [2]: 5.9 nM

CN1CCc2[nH]c(-c3ccnc(NC(=O)C(CC(F)F)c4ccc(F)cc4)c3)c(-c3ccccc3)c2C1=O (single isomer, unassigned) [Example 4, 4,4-difluoro-2-(4-fluorophenyl)-N-[4-(5-methyl-4-oxo-3-phenyl-4,5,6,7-tetrahydro-1H-pyrrolo[3,2-c]pyridin-2-yl)pyridin-2-yl]butanamide]
IC50 [1]: 1.1 nM | IC50 [2]: 2.3 nM

CN1CCc2[nH]c(-c3ccnc(NC(=O)C(CC(F)F)c4ccc(F)cc4)c3)c(-c3cccnc3)c2C1=O (single isomer, unassigned) [Example 10, 4,4-difluoro-2-(4-fluorophenyl)-N-{4-[5-methyl-4-oxo-3-(pyridin-3-yl)-4,5,6,7-tetrahydro-1H-pyrrolo[3,2-c]pyridin-2-yl]pyridin-2-yl}butanamide]
IC50 [1]: 110 nM | IC50 [2]: 64 nM

CN1CCc2[nH]c(-c3ccnc(NC(=O)C(CC(F)F)c4ccc(F)cc4)c3)c(-c3cccnc3)c2C1=O (single isomer, unassigned) [Example 11, 4,4-difluoro-2-(4-fluorophenyl)-N-{4-[5-methyl-4-oxo-3-(pyridin-3-yl)-4,5,6,7-tetrahydro-1H-pyrrolo[3,2-c]pyridin-2-yl]pyridin-2-yl}butanamide]
IC50 [1]: 4.3 nM | IC50 [2]: 4.7 nM

Cn1cc(CC(F)(F)F)c2[nH]c(-c3ccnc(NC(=O)C(CC(F)F)c4ccc(F)cc4)c3)c(-c3ccc(F)cc3)c2c1=O (single isomer, unassigned) [Example 27, 4,4-difluoro-2-(4-fluorophenyl)-N-{4-[3-(4-fluorophenyl)-5-methyl-4-oxo-7-(2,2,2-trifluoroethyl)-4,5-dihydro-1H-pyrrolo[3,2-c]pyridin-2-yl]pyridin-2-yl}butanamide]
IC50 [1]: 12 nM | IC50 [2]: 5.8 nM

Cn1cc(CC(F)(F)F)c2[nH]c(-c3ccnc(NC(=O)C(CC(F)F)c4ccc(F)cc4)c3)c(-c3ccc(F)cc3)c2c1=O (single isomer, unassigned) [Example 28, 4,4-difluoro-2-(4-fluorophenyl)-N-{4-[3-(4-fluorophenyl)-5-methyl-4-oxo-7-(2,2,2-trifluoroethyl)-4,5-dihydro-1H-pyrrolo[3,2-c]pyridin-2-yl]pyridin-2-yl}butanamide]
IC50 [1]: 6.1 nM | IC50 [2]: 5 nM

CC1(C)CNC(=O)c2c1[nH]c(-c1ccnc(NC(=O)C(CC(F)F)c3ccc(F)cc3)c1)c2-c1ccccc1 (single isomer, unassigned) [Example 44, N-[4-(7,7-dimethyl-4-oxo-3-phenyl-4,5,6,7-tetrahydro-1H-pyrrolo[3,2-c]pyridin-2-yl)pyridin-2-yl]-4,4-difluoro-2-(4-fluorophenyl)butanamide]
IC50 [1]: 11 nM | IC50 [2]: 12 nM

CC1(C)CNC(=O)c2c1[nH]c(-c1ccnc(NC(=O)C(CC(F)F)c3ccc(F)cc3)c1)c2-c1ccccc1 (single isomer, unassigned) [Example 45, N-[4-(7,7-dimethyl-4-oxo-3-phenyl-4,5,6,7-tetrahydro-1H-pyrrolo[3,2-c]pyridin-2-yl)pyridin-2-yl]-4,4-difluoro-2-(4-fluorophenyl)butanamide]
IC50 [1]: 2 nM | IC50 [2]: 2.7 nM

CC(C(=O)Nc1cc(-c2[nH]c3c(c2-c2ccccc2)C(=O)NCC3(C)C)ccn1)c1ccc(F)cc1 (single isomer, unassigned) [Example 47, N-[4-(7,7-dimethyl-4-oxo-3-phenyl-4,5,6,7-tetrahydro-1H-pyrrolo[3,2-c]pyridin-2-yl)pyridin-2-yl]-2-(4-fluorophenyl)propanamide]
IC50 [1]: 13 nM | IC50 [2]: 9.6 nM

CC(C(=O)Nc1cc(-c2[nH]c3c(c2-c2ccccc2)C(=O)NCC3(C)C)ccn1)c1ccc(F)cc1 (single isomer, unassigned) [Example 48, N-[4-(7,7-dimethyl-4-oxo-3-phenyl-4,5,6,7-tetrahydro-1H-pyrrolo[3,2-c]pyridin-2-yl)pyridin-2-yl]-2-(4-fluorophenyl)propanamide]
IC50 [1]: 1.8 nM | IC50 [2]: 2.9 nM

CC(C(=O)Nc1cc(-c2[nH]c3c(CC(F)(F)F)cn(C)c(=O)c3c2-c2ccccc2)ccn1)c1ccc(F)cc1 (single isomer, unassigned; (+)) [Example 15, (+)-2-(4-fluorophenyl)-N-{4-[5-methyl-4-oxo-3-phenyl-7-(2,2,2-trifluoroethyl)-4,5-dihydro-1H-pyrrolo[3,2-c]pyridin-2-yl]pyridin-2-yl}propanamide]
IC50 [1]: 2.3 nM | IC50 [2]: 2.8 nM

Cn1cc(CC(F)(F)F)c2[nH]c(-c3ccnc(NC(=O)C(CC(F)F)c4ccc(F)cc4)c3)c(-c3ccccc3)c2c1=O (single isomer, unassigned; (+)) [Example 20, (+)-4,4-difluoro-2-(4-fluorophenyl)-N-{4-[5-methyl-4-oxo-3-phenyl-7-(2,2,2-trifluoroethyl)-4,5-dihydro-1H-pyrrolo[3,2-c]pyridin-2-yl]pyridin-2-yl}butanamide]
IC50 [1]: 14 nM | IC50 [2]: 12 nM
